Test results reported in patent US20090088461A1, “Methods of Treating or Preventing Cardiac Disease Associated With a High Fat Diet” (Synvista Therapeutics, Inc., priority 2007, published 2009).
“Also recorded” adds a separate entry of the source.

Legend:
Assay type in all cases: in vivo
[1] = system: AGEs (CML), S100 A8/A9, RAGE, AGE-R1, AGE-R3; test: Accumulation of RAGE ligands and AGE receptor expression in HF-fed mice; conditions: for Gene expression RAGE: Wild-type mice, HF diet, real time RT-PCR, control = 1
Text: Adult (8-week-old) male […] mice (Precinct Animal Centre, Melbourne, Australia) and RAGE knockout (KO) mice^17 ([…] al., J Clin Invest. 113:1641-50, 2004) were housed in a temperature-controlled room on a 12-h light-dark cycle. Mice were placed on either a standard diet (AIN-93G; Specialty feeds, Perth AUS; n=10/group) or a high fat (HF) diet formulated to mimic a “Western fast food diet”, (SF05-031, Specialty Feeds; n=10). Both diets contained the same vitamin and calorie content. […] Animals receiving a HF diet were further randomized to receive alagebrium chloride at a dose of 1 mg/kg/day delivered by oral gavage. All groups were followed for 16 weeks. […] Cardiovasc Diabetol. 5:6, 2006) was also assessed by commercial ELISA.

[2] = system: myocardial inflammation (IL-6, TNF α, ICAM-1, MCP-1, NF-κBp65); test: Assessment of myocardial inflammation in HF-fed mice; conditions: HF diet, real time RT-PCR
Text: Adult (8-week-old) male […] mice (Precinct Animal Centre, Melbourne, Australia) and RAGE knockout (KO) mice^17 ([…] al., J Clin Invest. 113:1641-50, 2004) were housed in a temperature-controlled room on a 12-h light-dark cycle. Mice were placed on either a standard diet (AIN-93G; Specialty feeds, Perth AUS; n=10/group) or a high fat (HF) diet formulated to mimic a “Western fast food diet”, (SF05-031, Specialty Feeds; n=10). Both diets contained the same vitamin and calorie content. […] Animals receiving a HF diet were further randomized to receive alagebrium chloride at a dose of 1 mg/kg/day delivered by oral gavage. All groups were followed for 16 weeks. The expression of inflammatory cytokines, tumor necrosis factor (TNFα), interleukin-6 (IL-6), along with macrophage infiltration, is augmented following cardiac stress. The gene expression of IL-6, TNF α, the adhesion molecule, ICAM-1 and the chemokine, […] (MCP-1) in left ventricular homogenates were assessed by real-time quantitative RT-PCR. The myocardial expression of IL-6 protein was further quantitated by ELISA.

[3] = system: myocardial fibrosis (collagen I, collagen IV); test: Assessment of myocardial fibrosis in HF-fed mice; conditions: for collagen deposition / collagen accumulation associated with high fat feeding: HF-fed mice, histology (FIG. 1); for Gene expression Collagen I / Gene expression Collagen IV: HF diet, real time RT-PCR
Text: Adult (8-week-old) male […] mice (Precinct Animal Centre, Melbourne, Australia) and RAGE knockout (KO) mice^17 ([…] al., J Clin Invest. 113:1641-50, 2004) were housed in a temperature-controlled room on a 12-h light-dark cycle. Mice were placed on either a standard diet (AIN-93G; Specialty feeds, Perth AUS; n=10/group) or a high fat (HF) diet formulated to mimic a “Western fast food diet”, (SF05-031, Specialty Feeds; n=10). Both diets contained the same vitamin and calorie content. […] Animals receiving a HF diet were further randomized to receive alagebrium chloride at a dose of 1 mg/kg/day delivered by oral gavage. All groups were followed for 16 weeks. Previous studies have shown that obesity is associated with an increase in intramyocardial fibrosis. Gene expression of markers of fibrosis, including collagens and fibronectin were assessed by real-time quantitative RT-PCR, as detailed above. Perivascular collagen deposition was assessed by Van Giesen's Stain and interstitial fibrosis was assessed by staining with Picrosirus red staining of organized collagen. […] Paraffin-fixed cardiac sections were also stained for collagen IV by immunohistochemistry, as previously described^12 (Candido et al., Circ Res. 92:785-92, 2003).

[4] = system: cardiac hypertrophy (β-MHC, α-MHC); test: Assessment of cardiac hypertrophy in HF-fed mice; conditions: HF diet; for Mean myocyte diameter / Total LV mass / Total cardiac mass: 1 mg/kg/day oral gavage; for Gene expression Alpha MHC / Gene expression Beta MHC: real time RT-PCR
Text: Adult (8-week-old) male […] mice (Precinct Animal Centre, Melbourne, Australia) and RAGE knockout (KO) mice^17 ([…] al., J Clin Invest. 113:1641-50, 2004) were housed in a temperature-controlled room on a 12-h light-dark cycle. Mice were placed on either a standard diet (AIN-93G; Specialty feeds, Perth AUS; n=10/group) or a high fat (HF) diet formulated to mimic a “Western fast food diet”, (SF05-031, Specialty Feeds; n=10). Both diets contained the same vitamin and calorie content. […] Animals receiving a HF diet were further randomized to receive alagebrium chloride at a dose of 1 mg/kg/day delivered by oral gavage. All groups were followed for 16 weeks. The total cardiac and isolated left ventricular mass was measured at sacrifice, and expressed adjusted for body surface area in square meters (m^2). […] Cardiac hypertrophy in obesity reactivates the fetal gene program, characterized by a switch to β-Myosin heavy chain (β-MHC) expression in the adult murine heart^8 (Ng et al., Circ Res. 68:1742-50, 1991). Gene expression of markers of pathological hypertrophy, β-MHC and α-MHC were assessed by real-time quantitative RT-PCR. This was performed using the TaqMan system based on real-time detection of accumulated fluorescence, as previously described^19 (Thomas et al., J Am Soc Nephrol. 16:2976-84, 2005). Gene expression was normalized to 18S mRNA and reported as ratios compared to the level of expression in untreated control mice, which were given the arbitrary value of one.

Which “increase in S100 A8/A9 following HF feeding” value ([1]; HF-fed mice, ELISA (FIG. 3)) does the source give for `Cc1sc[n+](CC(=O)c2ccccc2)c1C.[Cl-]` [alagebrium chloride, 3-(2-phenyl-2-oxoethyl)-4,5-dimethylthiazolium chloride] here?
Its value is “attenuated”.

And the “Gene expression RAGE” value [1]?
The value was “prevented”.

What about the “Gene expression RAGE” value ([1]; listed as AL) of the same molecule?
Its value is 1.0 ± 0.2 AU/18s.

And the “AGE accumulation (ELISA for CML-modified protein)” value ([1]; both wild type and RAGE KO mice, HF diet (FIG. 3))?
Its value is “markedly reduced”.

What about the “Gene expression ICAM-1 (%)” value ([2]; RAGE KO mice) of the same molecule?
The value was “reduced”.

What about the “Gene expression Interleukin-6 (%)” value ([2]; RAGE KO mice) of the same molecule?
Its value is “no significant effect”.

What about the “Gene expression MCP-1 (%)” value ([2]; RAGE KO mice) of the same molecule?
Its value is “reduced”.

What about the “Gene expression P-65 (%)” value ([2]; RAGE KO mice) of the same molecule?
The value was 0.3 ± 0.1 AU/18s.

And the “Gene expression TNF-alpha (%)” value ([2]; RAGE KO mice)?
Its value is “no significant effect”.

What about the “Gene expression ICAM-1 (%)” value ([2]; RAGE KO mice, listed as AL) of the same molecule?
Its value is 0.2 ± 0.1 AU/18s.

What about the “Gene expression Interleukin-6 (%)” value ([2]; RAGE KO mice, listed as AL) of the same molecule?
The value was 0.4 ± 0.1 AU/18s.

What about the “Gene expression MCP-1 (%)” value ([2]; RAGE KO mice, listed as AL) of the same molecule?
The value was 0.2 ± 0.1 AU/18s.

What about the “Gene expression TNF-alpha (%)” value ([2]; RAGE KO mice, listed as AL) of the same molecule?
The value was 0.4 ± 0.1 AU/18s.

And the “Gene expression ICAM-1 (%)” value ([2]; Wild-type mice)?
The value was “reduced; also recorded: prevented”.

And the “Gene expression Interleukin-6 (%)” value ([2]; Wild-type mice)?
Its value is “reduced; also recorded: prevented”.

What about the “Gene expression MCP-1 (%)” value ([2]; Wild-type mice) of the same molecule?
Its value is “reduced”.

What about the “Gene expression TNF-alpha (%)” value ([2]; Wild-type mice) of the same molecule?
The value was “reduced; also recorded: prevented”.

And the “Gene expression ICAM-1 (%)” value ([2]; Wild-type mice, listed as AL)?
Its value is 0.2 ± 0.1 AU/18s.

And the “Gene expression Interleukin-6 (%)” value ([2]; Wild-type mice, listed as AL)?
The value was 0.2 ± 0.1 AU/18s.

What about the “Gene expression MCP-1 (%)” value ([2]; Wild-type mice, listed as AL) of the same molecule?
Its value is 0.4 ± 0.1 AU/18s.

What about the “Gene expression P-65 (%)” value ([2]; Wild-type mice, listed as AL) of the same molecule?
Its value is 0.8 ± 0.2 AU/18s.

What about the “Gene expression TNF-alpha (%)” value ([2]; Wild-type mice, listed as AL) of the same molecule?
Its value is 0.5 ± 0.2 AU/18s.

What about the “Gene expression P-65 (%)” value ([2]; Wild-type mice, listed as alagebirum chloride) of the same molecule?
Its value is “prevented”.

What about the “collagen deposition / collagen accumulation associated with high fat feeding” value [3] of the same molecule?
The value was “unaffected”.

What about the “collagen deposition / collagen accumulation associated with high fat feeding” value ([3]; listed as alegebrium chloride) of the same molecule?
The value was “reduced”.

What about the “Gene expression Collagen I” value ([3]; RAGE KO mice) of the same molecule?
Its value is 0.8 ± 0.1 AU/18s.

And the “Gene expression Collagen IV” value ([3]; RAGE KO mice)?
Its value is 0.9 ± 0.1 AU/18s.

And the “Gene expression Collagen I” value ([3]; Wild-type mice)?
The value was 1.6 ± 0.1 AU/18s.

What about the “Gene expression Collagen IV” value ([3]; Wild-type mice) of the same molecule?
The value was 1.3 ± 0.1 AU/18s.

And the Mean myocyte diameter ([4]; RAGE KO mice)?
The Mean myocyte diameter was 19.5 ± 0.6 μm.

And the “Total LV mass” value ([4]; RAGE KO mice)?
The value was 9.7 ± 0.3 g/m^2.

What about the Total cardiac mass ([4]; RAGE KO mice) of the same molecule?
Its Total cardiac mass is 13.7 ± 0.6 g/m^2.

What about the “Gene expression Alpha MHC” value ([4]; RAGE KO mice) of the same molecule?
Its value is “reduced”.

What about the “Gene expression Beta MHC” value ([4]; RAGE KO mice) of the same molecule?
The value was 1.6 ± 0.2 AU/18s.

And the “Gene expression Alpha MHC” value ([4]; RAGE KO mice, listed as AL)?
The value was 0.6 ± 0.2 AU/18s.

What about the “Total LV mass” value ([4]; Wild-type mice) of the same molecule?
The value was 9.5 ± 0.3 g/m^2.

What about the Total cardiac mass ([4]; Wild-type mice) of the same molecule?
Its Total cardiac mass is 14.5 ± 0.4 g/m^2.

And the Mean myocyte diameter ([4]; Wild-type mice, 1 mg/kg/day)?
Its Mean myocyte diameter is “no effect”.

What about the Mean myocyte diameter ([4]; Wild-type mice, listed as AL, 1 mg/kg/day) of the same molecule?
Its Mean myocyte diameter is 19.7 ± 0.8 μm.

What about the “Gene expression Alpha MHC” value ([4]; Wild-type mice) of the same molecule?
The value was “reduced”.

And the “Gene expression Beta MHC” value ([4]; Wild-type mice)?
The value was “no effect”.

What about the “Gene expression Alpha MHC” value ([4]; Wild-type mice, listed as AL) of the same molecule?
Its value is 0.7 ± 0.2 AU/18s.

What about the “Gene expression Beta MHC” value ([4]; Wild-type mice, listed as AL) of the same molecule?
The value was 2.5 ± 0.3 AU/18s.
